The results in this text go back to PubChem BioAssay AID1996.

The structures appear in SMILES notation. In brackets after ≈: the same amount, converted by molar mass.

The conditions of this series: buffer; pH 7.4; 200.0 µM.
`Nc1ccccc1C(=O)NC1CCCNC1=O` (stereo not drawn): the kinetic solubility is > 35 µg/mL.
As to `CC(=O)c1ccc(OCC(=O)NC2CCCCCC2)cc1`, the kinetic solubility was > 43.4 µg/mL.
In turn, `COCCNc1nc(C)c(C(C)=O)s1` yielded a solubility (kinetic) of 25.7 µg/mL (≈ 120 µM).
Take `O=C(NCCS(=O)(=O)NC1CCCC1)c1ccccc1`: the kinetic solubility was > 44.5 µg/mL.
`Cc1onc(-c2c(Cl)cccc2Cl)c1C(=O)O/N=C(\C#N)c1c(Cl)cccc1Cl`: the solubility (kinetic) was determined as 62.9 µg/mL (≈ 134 µM).
The figure for `CC1CN(CC(O)COC2CCC(C(C)(C)C)CC2)CC(C)O1.Cl` (stereo not drawn) is 48.8 µg/mL; for `COc1ccc(-c2cc(C(=O)Nc3ccc(OC)cc3OC)no2)cc1` it is < 0.4 µg/mL.
Compound `CC(=O)N(CN1C(=O)C2C3C=CC(C3)C2C1=O)c1cccc(Cl)c1` (stereo not drawn) came in with a kinetic solubility of 50.4 µg/mL (≈ 146 µM).
The figure for `Cc1ccc(NC(=O)COC(=O)c2cccnc2Cl)cc1S(=O)(=O)N1CCOCC1` is 66 µg/mL (≈ 145 µM); for `CC1(C)CC(=O)c2cnc3nc4ccccc4n3c2C1` it is 26.6 µg/mL (≈ 100 µM).
Compound `Cc1c(C)n(CCCN(C)C)c2ncnc(Nc3ccc(F)cc3)c12` registered a solubility (kinetic) of 48.7 µg/mL (≈ 143 µM).
The same measure for `COc1ccccc1CCC(=O)NNC(=O)c1ccncc1`: > 44.9 µg/mL; for `O=C(COC(=O)c1cc(Cl)nc(Cl)c1)NC1CCCCCC1`: 5.9 µg/mL (≈ 17.1 µM).
The compound `O=[N+]([O-])c1ccccc1S(=O)(=O)c1ccccc1[N+](=O)[O-]` had a solubility (kinetic) of 0.8 µg/mL (≈ 2.6 µM).
Regarding `Cc1ccc2[nH]c(C(F)(F)F)cc(=O)c2c1`, the kinetic solubility is 33.5 µg/mL (≈ 147 µM). This solubility kinetic is about 42-fold higher than that of the compound before.
On to `O=C(O)CC1(CC(=O)NCc2ccc(F)cc2)CCCCC1`, for which the solubility (kinetic) is > 46.1 µg/mL.
The same measure for `O=C(NC(=S)Nc1cccc([N+](=O)[O-])c1)c1ccccc1`: 1.2 µg/mL (≈ 3.98 µM); for `CN(c1ccccc1)c1nc(N)c([N+](=O)[O-])c(Nc2ccccc2)n1`: < 0.1 µg/mL.
Consider `CCOc1ccc(NC(=O)CN(C)S(=O)(=O)c2cnc[nH]2)cc1`, for which the kinetic solubility is > 50.8 µg/mL.
As to `COc1cc(NC(=O)c2ccc(S(=O)(=O)N(C)c3ccccc3OC)cc2)cc(OC)c1`, the solubility (kinetic) turned out to be 4.5 µg/mL (≈ 9.86 µM).
For the compound `CCC(NC(C)C)C(O)c1ccc(O)c(O)c1.CS(=O)(=O)O` (stereo not drawn), the kinetic solubility is > 50.3 µg/mL.
The same measure for `N#CCSc1ccccc1NC(=O)CN1C(=O)C(=O)N(Cc2ccccc2)C1=O`: 43.3 µg/mL (≈ 106 µM); for `CCCCN(C)Cc1cc(=O)oc2cc3c(cc12)CCCC3`: < 0.6 µg/mL.
Turning to `COc1cccc(NC(=O)c2cccnn2)c1`, the kinetic solubility was > 34.4 µg/mL.
`CNCCc1ccccc1`: the kinetic solubility is < 0.3 µg/mL.
The figure for `COCCN(C(=S)Nc1ccc(C)cc1C)C(C)c1cccs1` (stereo not drawn) is 7.7 µg/mL (≈ 22.1 µM); for `O=[N+]([O-])c1cccc2c(S(=O)(=O)N3CCOCC3)cccc12` it is 35.4 µg/mL (≈ 110 µM).
The same measure for `Cc1cc(C)n(/C(=C/N(C)C)C(=O)c2ccccc2)n1`: > 40.4 µg/mL; for `CC(C)[C@H](NC(=O)N1CC(=O)Nc2ccccc21)C(=O)N1CCC[C@@H]1C(=O)O`: > 58.3 µg/mL; for `O=C(Nc1cccc(F)c1)Nc1c[nH]c(=O)[nH]c1=O`: 2.4 µg/mL (≈ 9.08 µM).
In the case of `Cc1cccc(C(=O)OCC(=O)NCC2COc3ccccc3O2)c1` (stereo not drawn), the solubility (kinetic) was 5.9 µg/mL (≈ 17.3 µM).
Compound `CNC(=S)N1C2CCCC1CC(NC(=O)c1ccc(F)cc1)C2` (stereo not drawn) came in with a solubility (kinetic) of 21.8 µg/mL (≈ 65 µM).
`O=C(NC1=NCCS1)c1cccc(OC(F)F)c1` displayed a kinetic solubility of 23.9 µg/mL (≈ 87.8 µM).
The same measure for `Nc1ccccc1SCC(=O)Nc1nccs1`: > 39.8 µg/mL; for `C[C@H](NC(=O)c1ccco1)C(=O)NCc1cccs1`: > 41.7 µg/mL; for `Cc1ccc(C)c(CN2C(=O)NC3(CCCCCC3)C2=O)c1`: 3.7 µg/mL (≈ 12.3 µM).
The figure for `COc1ccccc1NC(=O)NCCc1c[nH]c2ccccc12` is 41.1 µg/mL (≈ 133 µM).
As for `CC1CN(S(=O)(=O)c2cc(C(=O)N3CCCCC3C)ccc2Cl)CC(C)O1` (stereo not drawn), the solubility (kinetic) was > 62.2 µg/mL.
Compound `COC(=O)c1ccccc1NC(=S)N1CCOCC1` yielded a solubility (kinetic) of 40.1 µg/mL (≈ 143 µM).
The same measure for `Cc1nc(Cl)sc1C(=O)Nc1ccccc1Cl`: 21.7 µg/mL (≈ 75.6 µM); for `O=C(COC(=O)c1ccc(F)cc1Cl)NC1CCCCCCC1`: 21.2 µg/mL (≈ 62 µM).
The figure for `NC(=O)c1ccc(NC(=O)COC(=O)c2ccc(Cl)nc2)cc1` is > 50.1 µg/mL; for `O=C(N/N=C/c1ccccc1)C(O)c1ccccc1` (stereo not drawn) it is > 38.1 µg/mL.
`O=C(OCC(=O)N1CCOCC1)c1ccc2ccccc2c1O` gave a solubility (kinetic) of 28.2 µg/mL (≈ 89.4 µM).
As to `Cc1ccccc1N1C(=O)c2cccc([N+](=O)[O-])c2C1=O`, the solubility (kinetic) was > 42.3 µg/mL.
The same measure for `Cc1cc(NC(=O)CSCc2ccccc2C)no1`: 18.3 µg/mL (≈ 66.2 µM); for `COc1ccc(C(=O)NC2CC(C)(C)NC(C)(C)C2)cc1OC`: > 48.1 µg/mL.
The figure for `C#CCOc1ccc(Cl)cc1/C=C1/C(=O)ON=C1C` is > 41.4 µg/mL; for `CN1CCSc2ccc(C(=O)Nc3ccc(Cl)cc3)cc21` it is 0.5 µg/mL (≈ 1.57 µM); for `COCC(=O)Nc1ccc(S(=O)(=O)N2CCCC2)cc1` it is > 44.8 µg/mL.
The same measure for `Cc1c(NC(=O)C(C)Oc2ccc(Br)cc2)c(=O)n(-c2ccccc2)n1C` (stereo not drawn): > 64.5 µg/mL; for `Cc1ccc(F)cc1NC(=O)CSc1ncccn1`: > 41.6 µg/mL; for `CC(=O)N1CCc2[nH]c3ccc(C)cc3c2C1`: > 34.2 µg/mL.
Consider `C#CCOC(=O)CN1C(=O)c2cccc3cccc(c23)C1=O`, for which the solubility (kinetic) was < 0.6 µg/mL.
Compound `N#Cc1ccc(NC(=S)NC(=O)C2CCCCC2)cc1` came in with a solubility (kinetic) of 1.6 µg/mL (≈ 5.57 µM).
The compound `Cc1ccc(C)c(-c2csc(-c3cccnc3)n2)c1` yielded a kinetic solubility of 9.9 µg/mL (≈ 37.2 µM).
As for `COc1ccc(C(=O)NCCN2CCCC2)cc1[N+](=O)[O-]`, the solubility (kinetic) is > 44 µg/mL.
The figure for `Cc1ccc(NC(=O)CNC(=O)COc2ccccc2)nc1` is 14.9 µg/mL (≈ 49.8 µM); for `Cc1csc(NC(=O)c2ccccc2)n1` it is > 32.7 µg/mL; for `COc1ccc(N2CCN(c3ccc(NC(=O)/C=C\C(=O)O)cc3)CC2)cc1` it is > 57.2 µg/mL.
The same measure for `COc1ccc(OC)c(CNc2ccc3c(c2)nc(C)n3C)c1`: 37.1 µg/mL (≈ 119 µM); for `CC(=O)c1ccc(Nc2nc(-c3cccnc3)cs2)cc1`: 0.9 µg/mL (≈ 3.05 µM); for `Clc1ncn(CCOc2ccccc2)c1Cl`: 38.2 µg/mL (≈ 149 µM).
Turning to `Cc1ccc(CN(C)C2CCN(C)CC2)cc1`, the kinetic solubility was 31.3 µg/mL (≈ 135 µM).
As to `COc1ccc(C(=O)N2CCC3(CC2)OCCO3)cc1`, the solubility (kinetic) was > 41.6 µg/mL.
The figure for `CCOC(=O)c1ccccc1NC(=S)N1CCC(C(N)=O)CC1` is 41.6 µg/mL (≈ 124 µM); for `O=C(Nc1ccc(N2CCOCC2)nc1)c1ccccc1Cl` it is 42 µg/mL (≈ 132 µM).
The figure for `O=C(Nc1ccccc1C(=O)NCCCN1CCOCC1)c1ccccc1` is > 55.1 µg/mL.
The same measure for `N#C/C(=C\c1cccc(Br)c1)C(=O)N1CCCCC1`: > 47.9 µg/mL; for `O=C(CNC1CCCCC1)Nc1ccc(Cl)cc1`: 38 µg/mL (≈ 142 µM); for `O=C(O)c1ccc(NC2CC(=O)N(Cc3ccccc3)C2=O)cc1` (stereo not drawn): > 48.7 µg/mL.
Consider `O=C(CN1C(=O)c2ccccc2C1=O)c1ccc(F)cc1`, for which the solubility (kinetic) stood at 39.5 µg/mL (≈ 139 µM).
For `COc1ccc(C(=O)NCC(=O)OCC(=O)NC23CC4CC(CC(C4)C2)C3)cc1`, the solubility (kinetic) was > 60.1 µg/mL.
For `O=C(N1CCN(S(=O)(=O)c2ccc(Cl)cc2)CC1)n1ccnc1`, the kinetic solubility was 52.8 µg/mL (≈ 149 µM).
The same measure for `CCCc1c(C)[nH]c2ccc(C(=O)O)cc2c1=S`: > 39.2 µg/mL; for `Cc1ccc2[nH]cc(CCNC(=O)C3CCCO3)c2c1` (stereo not drawn): > 40.9 µg/mL.
Compound `COc1ccc(Cl)cc1S(=O)(=O)Nc1noc2ccccc12` displayed a kinetic solubility of 47 µg/mL (≈ 139 µM).
Regarding `C/C(=N\NC(=O)c1ccc(Cl)cc1)c1cccnc1`, the kinetic solubility is > 41.1 µg/mL.
In the case of `CS(=O)(=O)N(CC(=O)N1CCCC1)c1ccccc1F`, the solubility (kinetic) is > 45.1 µg/mL.
The same measure for `Cc1ccc(OCC(=O)NC2CCSc3ccccc32)cc1` (stereo not drawn): 11.8 µg/mL (≈ 37.6 µM); for `Cc1c(C(=O)Cc2ccccc2)n(C)c2ccccc12`: 2.5 µg/mL (≈ 9.49 µM); for `S=C(Nc1ccc2c(c1)OCCO2)Nc1ccc2c(c1)OCO2`: > 49.6 µg/mL.
In the case of `CCN(CC(=O)Nc1ccc(S(=O)(=O)N2CCCC2)cc1)CC(=O)Nc1ccccc1C(F)(F)F`, the kinetic solubility was found to be 21.2 µg/mL (≈ 41.4 µM).
The figure for `O=S(=O)(Cc1ccccc1)Nc1ccccc1Br` is 40.6 µg/mL (≈ 124 µM); for `Cc1ccc(Nc2nc(Cl)nc(NC3CCCCC3)n2)cc1` it is < 0.1 µg/mL.
In turn, `FC(F)(F)c1cccc(N2CCN(C3CC4CCC3C4)CC2)c1` (stereo not drawn) came in with a solubility (kinetic) of 1.4 µg/mL (≈ 4.32 µM).
On to `Cc1cc(OCC(O)CN(C)C(=O)C(C)Oc2ccccc2)ccc1Cl` (stereo not drawn), for which the kinetic solubility stood at 45.6 µg/mL (≈ 121 µM).
The figure for `Cc1cccc(OCCCn2c(=O)oc3ccc(C)cc32)c1` is 3.3 µg/mL (≈ 11.1 µM); for `CCOC(=O)c1c(CC(C)C)csc1N` it is 2.1 µg/mL (≈ 9.24 µM).
The compound `COC(=O)c1ccc(CNC(=O)COC(=O)CCC(=O)c2ccc(F)cc2)cc1` yielded a solubility (kinetic) of 5.5 µg/mL (≈ 13.7 µM).
The figure for `O=C(Cc1ccc([N+](=O)[O-])cc1)NC(C(=O)[O-])C(O)c1cccc([N+](=O)[O-])c1.[Na+]` (stereo not drawn) is > 61.7 µg/mL; for `Cl.Oc1cccc(Nc2c3ccccc3nc3ccccc23)c1` it is 0.7 µg/mL; for `CCn1c(CCC(=O)O)nc2cc(S(=O)(=O)N3CCOCC3)ccc21` it is > 55.1 µg/mL.
For `O=C(CN1C(=O)NC2(CCCC2)C1=O)NCC1CCCO1` (stereo not drawn), the kinetic solubility is 38.5 µg/mL (≈ 130 µM).
On to `CSc1ccccc1NC(=O)Nc1cccc2ccccc12`, for which the solubility (kinetic) was < 0.3 µg/mL.
The same measure for `CC(C)OC(=O)C(C)Nc1ccc(F)c(Cl)c1` (stereo not drawn): 5.8 µg/mL (≈ 22.3 µM); for `Cc1cc(C)cc(NC(=S)Nc2cccc3ccccc23)c1`: 1.1 µg/mL (≈ 3.59 µM); for `Cc1ccccc1OCC(=O)OCC(=O)NCc1ccccc1Cl`: 14.1 µg/mL (≈ 40.5 µM).
The figure for `O=C1N=C(N2CCN(c3ccccc3)CC2)S/C1=C/c1ccco1` is 17.4 µg/mL (≈ 51.3 µM); for `COCCCNC(=S)N1CCCC(c2nc3cc(C)c(C)cc3[nH]2)C1` (stereo not drawn) it is 53.2 µg/mL (≈ 148 µM).
Regarding `O=C(c1cccnc1)c1ncc(C(F)(F)F)cc1Cl`, the kinetic solubility came out at 35.7 µg/mL (≈ 125 µM). This solubility kinetic and that of the compound before are within 1.5-fold of each other.
For the compound `O=S(=O)(Nc1ccncc1)c1cc(Cl)c(Cl)cc1Cl`, the kinetic solubility is 1.6 µg/mL (≈ 4.74 µM).
In the case of `Cc1ccc(S(=O)(=O)N(C)C(C)CCc2ccco2)cc1` (stereo not drawn), the kinetic solubility was 26.2 µg/mL (≈ 85.2 µM).

What is called kinetic solubility is solubility judged after dilution from a stock solution rather than from solid.
